# Source: paper PMC5218480 (PLoS ONE, 2017)
# Tested on: MV-4-11 cells
# Assay: Gene expression microarray analysis (Affymetrix PrimeView) and GSEA
# Assay type: cell-based, human
# Parameters: RFU PODN (11730768_x_at) / Fold change /veh PODN (11730768_x_at) / RFU LINC00158 (11744669_a_at) / Fold change /veh LINC00158 (11744669_a_at) / RFU DUSP10 (11751237_a_at) / Fold change /veh DUSP10 (11751237_a_at) / RFU ID3 (11757404_x_at) / Fold change /veh ID3 (11757404_x_at) / RFU PLEKHG5 (11737974_s_at) / Fold change /veh PLEKHG5 (11737974_s_at) / RFU LRRC4B (11730491_at) / Fold change /veh LRRC4B (11730491_at) / RFU GIMAP4 (11747438_a_at) / Fold change /veh GIMAP4 (11747438_a_at) / RFU KRT8 (11758183_x_at) / Fold change /veh KRT8 (11758183_x_at) / RFU CNN1 (11734310_a_at) / Fold change /veh CNN1 (11734310_a_at) / RFU VPS37D (11726825_at) / Fold change /veh VPS37D (11726825_at) / RFU C10orf10 (11716522_x_at) / Fold change /veh C10orf10 (11716522_x_at) / RFU KIR2DL2 /// KIR2DL4 /// KIR2DL5A /// KIR2DL5B /// KIR2DS1 /// KIR2DS2 /// KIR2DS3 /// KIR2DS4 /// KIR3DL3 /// KIR3DL3 /// KIR3DS1 (11738374_at) / Fold change /veh KIR2DL2 /// KIR2DL4 /// KIR2DL5A /// KIR2DL5B /// KIR2DS1 /// KIR2DS2 /// KIR2DS3 /// KIR2DS4 /// KIR3DL3 /// KIR3DL3 /// KIR3DS1 (11738374_at) / RFU C1QL1 (11718748_at) / Fold change /veh C1QL1 (11718748_at) / RFU TMPRSS4 (11747572_a_at) / Fold change /veh TMPRSS4 (11747572_a_at) / RFU HAMP (11756126_x_at) / Fold change /veh HAMP (11756126_x_at) / RFU RNFT2 (11725882_a_at) / Fold change /veh RNFT2 (11725882_a_at) / RFU NR4A2 (11747474_a_at) / Fold change /veh NR4A2 (11747474_a_at) / RFU ABCC12 (11746883_a_at) / Fold change /veh ABCC12 (11746883_a_at) / RFU TMEM136 (11760407_x_at) / Fold change /veh TMEM136 (11760407_x_at) / RFU CLDN22 /// WWC2 (11732394_at) / Fold change /veh CLDN22 /// WWC2 (11732394_at) / RFU HLA-DPB1 (11760878_x_at) / Fold change /veh HLA-DPB1 (11760878_x_at) / RFU SPINT1 (11716480_a_at) / Fold change /veh SPINT1 (11716480_a_at) / RFU GAP43 (11754022_s_at) / Fold change /veh GAP43 (11754022_s_at) / RFU A4GNT (11735810_at) / Fold change /veh A4GNT (11735810_at) / RFU PRB3 (11715151_x_at) / Fold change /veh PRB3 (11715151_x_at) / RFU TUBB4B (11761932_at) / Fold change /veh TUBB4B (11761932_at) / RFU CAPN14 (11732068_a_at) / Fold change /veh CAPN14 (11732068_a_at) / RFU TMCC2 (11721928_a_at) / Fold change /veh TMCC2 (11721928_a_at) / RFU IRGQ (11745062_a_at) / Fold change /veh IRGQ (11745062_a_at) / RFU FAM174B (11720279_a_at) / Fold change /veh FAM174B (11720279_a_at) / RFU TMPRSS4 (11748680_a_at) / Fold change /veh TMPRSS4 (11748680_a_at) / RFU FAM212B (11763350_a_at) / Fold change /veh FAM212B (11763350_a_at) / RFU PLEKHG5 (11743358_a_at) / Fold change /veh PLEKHG5 (11743358_a_at) / RFU ZSCAN30 (11745921_a_at) / Fold change /veh ZSCAN30 (11745921_a_at) / RFU CMKLR1 (11741424_a_at) / Fold change /veh CMKLR1 (11741424_a_at) / RFU LOC101060620 /// MAPK8IP1 (11723275_at) / Fold change /veh LOC101060620 /// MAPK8IP1 (11723275_at) / RFU SPTSSB (11747773_x_at) / Fold change /veh SPTSSB (11747773_x_at) / RFU PRSS12 (11739890_at) / Fold change /veh PRSS12 (11739890_at) / RFU BIN1 (11741810_x_at) / Fold change /veh BIN1 (11741810_x_at) / RFU WNT11 (11732464_a_at) / Fold change /veh WNT11 (11732464_a_at) / RFU C10orf10 (11716521_a_at) / Fold change /veh C10orf10 (11716521_a_at) / RFU C5orf56 (11738089_at) / Fold change /veh C5orf56 (11738089_at) / RFU CYB561 (11721691_x_at) / Fold change /veh CYB561 (11721691_x_at) / RFU ANKRD19P (11752326_a_at) / Fold change /veh ANKRD19P (11752326_a_at) / RFU OR2T12 /// OR2T33 /// OR2T8 (11738714_s_at) / Fold change /veh OR2T12 /// OR2T33 /// OR2T8 (11738714_s_at) / RFU VCAN (11748164_a_at) / Fold change /veh VCAN (11748164_a_at) / RFU JSRP1 (11732532_at) / Fold change /veh JSRP1 (11732532_at) / RFU KRTAP10-11 (11738290_x_at) / Fold change /veh KRTAP10-11 (11738290_x_at) / RFU MYO3A (11730013_a_at) / Fold change /veh MYO3A (11730013_a_at) / RFU EBF3 (11725865_a_at) / Fold change /veh EBF3 (11725865_a_at) / RFU CAMK2N1 (11719241_x_at) / Fold change /veh CAMK2N1 (11719241_x_at) / RFU C5orf56 (11738088_a_at) / Fold change /veh C5orf56 (11738088_a_at) / RFU OLFML3 (11715873_a_at) / Fold change /veh OLFML3 (11715873_a_at) / RFU LOC100653217 /// NTM (11731650_a_at) / Fold change /veh LOC100653217 /// NTM (11731650_a_at) / RFU MAPK11 (11762145_a_at) / Fold change /veh MAPK11 (11762145_a_at) / RFU FIZ1 (11724087_x_at) / Fold change /veh FIZ1 (11724087_x_at) / RFU OASL (11726364_x_at) / Fold change /veh OASL (11726364_x_at) / RFU SOX15 (11748057_x_at) / Fold change /veh SOX15 (11748057_x_at) / RFU CD79A (11719716_a_at) / Fold change /veh CD79A (11719716_a_at) / RFU HIST1H1D (11736915_at) / Fold change /veh HIST1H1D (11736915_at) / RFU CASKIN2 (11723855_a_at) / Fold change /veh CASKIN2 (11723855_a_at) / RFU LOC730098 (11760151_x_at) / Fold change /veh LOC730098 (11760151_x_at) / RFU OR4N2 (11742367_at) / Fold change /veh OR4N2 (11742367_at) / RFU PRRT2 (11749266_a_at) / Fold change /veh PRRT2 (11749266_a_at) / RFU SNX32 (11753110_a_at) / Fold change /veh SNX32 (11753110_a_at) / RFU CDHR5 (11726645_a_at) / Fold change /veh CDHR5 (11726645_a_at) / RFU RCAN1 (11760418_a_at) / Fold change /veh RCAN1 (11760418_a_at) / RFU FAM167A (11723789_a_at) / Fold change /veh FAM167A (11723789_a_at) / RFU FAM26E (11764081_at) / Fold change /veh FAM26E (11764081_at) / RFU ISYNA1 (11749810_s_at) / Fold change /veh ISYNA1 (11749810_s_at) / RFU ACY1 (11761880_at) / Fold change /veh ACY1 (11761880_at) / RFU 11764098_at / Fold change /veh 11764098_at / RFU SAMD14 (11745864_x_at) / Fold change /veh SAMD14 (11745864_x_at) / RFU NPB (11741838_a_at) / Fold change /veh NPB (11741838_a_at) / RFU TMPRSS6 (11731388_a_at) / Fold change /veh TMPRSS6 (11731388_a_at) / RFU KRTAP10-2 (11738614_at) / Fold change /veh KRTAP10-2 (11738614_at) / RFU ARHGAP8 /// PRR5-ARHGAP8 (11727945_x_at) / Fold change /veh ARHGAP8 /// PRR5-ARHGAP8 (11727945_x_at) / RFU KRTAP5-7 /// NADSYN1 (11734609_at) / Fold change /veh KRTAP5-7 /// NADSYN1 (11734609_at) / RFU RASL12 (11751679_a_at) / Fold change /veh RASL12 (11751679_a_at) / RFU CDKN2B (11736163_a_at) / Fold change /veh CDKN2B (11736163_a_at) / RFU PRF1 (11729649_at) / Fold change /veh PRF1 (11729649_at) / RFU, ZNF638 /// ZNF638-IT1 / Fold change vs veh, ZNF638 /// ZNF638-IT1 / RFU, PANK3 / Fold change vs veh, PANK3 / RFU, SH3YL1 / Fold change vs veh, SH3YL1 / RFU, ZEB2 / Fold change vs veh, ZEB2 / RFU, NRIP1 / Fold change vs veh, NRIP1 / RFU, PTTG1IP / Fold change vs veh, PTTG1IP / RFU, CAPN2 / Fold change vs veh, CAPN2 / RFU, MED14 / Fold change vs veh, MED14 / RFU, SNORA58 / Fold change vs veh, SNORA58 / RFU, C1orf63 / Fold change vs veh, C1orf63 / RFU, LRRFIP1 / Fold change vs veh, LRRFIP1 / RFU, NDUFAF7 / Fold change vs veh, NDUFAF7 / RFU, SLC12A2 / Fold change vs veh, SLC12A2 / RFU, IBTK / Fold change vs veh, IBTK / RFU, ESF1 / Fold change vs veh, ESF1 / Fold change vs veh, TMEM50B / RFU, TAOK1 / Fold change vs veh, TAOK1 / RFU, ACBD3 / Fold change vs veh, ACBD3 / RFU, TMA16 / Fold change vs veh, TMA16 / RFU, RWDD3 / Fold change vs veh, RWDD3 / RFU, BCAT1 / Fold change vs veh, BCAT1 / RFU, EDEM3 / Fold change vs veh, EDEM3 / RFU, TMEM33 / Fold change vs veh, TMEM33 / RFU, WDR75 / Fold change vs veh, WDR75 / RFU, AHCTF1 / Fold change vs veh, AHCTF1 / RFU, TFRC / Fold change vs veh, TFRC / RFU, ZDHHC17 / Fold change vs veh, ZDHHC17 / RFU, NOM1 / Fold change vs veh, NOM1 / RFU, ARL8B / Fold change vs veh, ARL8B / RFU, ZBTB11 / Fold change vs veh, ZBTB11 / RFU, TAMM41 / Fold change vs veh, TAMM41 / RFU, KIAA1704 /// LOC100996395 / Fold change vs veh, KIAA1704 /// LOC100996395 / RFU, ING1 / Fold change vs veh, ING1 / RFU, TRMT61B / Fold change vs veh, TRMT61B / RFU, FUBP3 / Fold change vs veh, FUBP3 / RFU, TP53 / Fold change vs veh, TP53 / RFU, TNKS2 / Fold change vs veh, TNKS2 / RFU, ZFP14 / Fold change vs veh, ZFP14 / RFU, ACTR2 / Fold change vs veh, ACTR2 / RFU, PPP3R1 / Fold change vs veh, PPP3R1 / RFU, PIK3R1 / Fold change vs veh, PIK3R1 / RFU, HNRNPA1 / Fold change vs veh, HNRNPA1 / RFU, RNF170 / Fold change vs veh, RNF170 / RFU, ZNF28 / Fold change vs veh, ZNF28 / RFU, RNGTT / Fold change vs veh, RNGTT / RFU, OGT / Fold change vs veh, OGT / RFU, BRD1 / Fold change vs veh, BRD1 / RFU, MARS / Fold change vs veh, MARS / RFU, ZNF655 / Fold change vs veh, ZNF655 / RFU, FAHD1 / Fold change vs veh, FAHD1 / RFU, BDP1 / Fold change vs veh, BDP1 / RFU, LRRCC1 / Fold change vs veh, LRRCC1 / RFU, ARID1A / Fold change vs veh, ARID1A / RFU, ZNF146 / Fold change vs veh, ZNF146 / RFU, ZNF330 / Fold change vs veh, ZNF330 / RFU, GPN3 / Fold change vs veh, GPN3 / RFU, C9orf123 / Fold change vs veh, C9orf123 / RFU, N4BP2L2 / Fold change vs veh, N4BP2L2 / RFU, ARFIP1 / Fold change vs veh, ARFIP1 / RFU, FAM179B / Fold change vs veh, FAM179B / RFU, BCL10 / Fold change vs veh, BCL10 / RFU, UHRF1BP1L / Fold change vs veh, UHRF1BP1L / RFU, BET1 / Fold change vs veh, BET1 / RFU, CNOT2 / Fold change vs veh, CNOT2 / RFU, ZNF268 / Fold change vs veh, ZNF268 / Fold change vs veh, ZNF507 / RFU, DGCR2 / Fold change vs veh, DGCR2 / RFU, WDSUB1 / Fold change vs veh, WDSUB1 / Fold change vs veh, HSP90B1 /// MIR3652 / RFU, ADSS / Fold change vs veh, ADSS / RFU, GK / Fold change vs veh, GK / RFU, ZNF148 / Fold change vs veh, ZNF148 / RFU, TAF9 / Fold change vs veh, TAF9 / RFU, SLC1A5 / Fold change vs veh, SLC1A5 / RFU, SLMO2 / Fold change vs veh, SLMO2 / RFU, ABCC4 / Fold change vs veh, ABCC4 / RFU, LOC101060439 /// RAP1B / Fold change vs veh, LOC101060439 /// RAP1B / RFU, RFX7 / Fold change vs veh, RFX7 / RFU, GTPBP10 / Fold change vs veh, GTPBP10 / RFU, CNEP1R1 / Fold change vs veh, CNEP1R1 / RFU, BIVM-ERCC5 /// ERCC5 / Fold change vs veh, BIVM-ERCC5 /// ERCC5 / RFU, ILF3 / Fold change vs veh, ILF3 / RFU 11762660_at / Fold change /veh 11762660_at / RFU VCAN (11757783_s_at) / Fold change /veh VCAN (11757783_s_at) / RFU DDX43 (11728927_at) / Fold change /veh DDX43 (11728927_at) / RFU KRT8 (11758188_x_at) / Fold change /veh KRT8 (11758188_x_at) / RFU NKD1 (11759106_at) / Fold change /veh NKD1 (11759106_at) / RFU SRD5A1 (11742802_a_at) / Fold change /veh SRD5A1 (11742802_a_at) / RFU TPSAB1 /// TPSB2 (11721975_s_at) / Fold change /veh TPSAB1 /// TPSB2 (11721975_s_at) / RFU GSTM3 (11746129_a_at) / Fold change /veh GSTM3 (11746129_a_at) / RFU IL23R (11737362_x_at) / Fold change /veh IL23R (11737362_x_at) / RFU TMEM51 (11727254_a_at) / Fold change /veh TMEM51 (11727254_a_at) / RFU PIWIL2 (11732686_x_at) / Fold change /veh PIWIL2 (11732686_x_at) / RFU ORM1 (11744905_x_at) / Fold change /veh ORM1 (11744905_x_at) / RFU CCDC152 (11743942_at) / Fold change /veh CCDC152 (11743942_at) / RFU ECM1 (11717891_a_at) / Fold change /veh ECM1 (11717891_a_at) / RFU IL23R (11748794_a_at) / Fold change /veh IL23R (11748794_a_at) / RFU TNFAIP8L3 (11732012_x_at) / Fold change /veh TNFAIP8L3 (11732012_x_at) / RFU MBOAT4 (11741988_at) / Fold change /veh MBOAT4 (11741988_at) / RFU 11764193_at / Fold change /veh 11764193_at / RFU TMEM53 (11763286_at) / Fold change /veh TMEM53 (11763286_at) / RFU MAGEB2 (11727129_at) / Fold change /veh MAGEB2 (11727129_at) / RFU TMEM200A (11744735_a_at) / Fold change /veh TMEM200A (11744735_a_at) / RFU CCDC152 (11751479_a_at) / Fold change /veh CCDC152 (11751479_a_at) / RFU FAM211A (11726209_a_at) / Fold change /veh FAM211A (11726209_a_at) / RFU RGS16 (11746705_a_at) / Fold change /veh RGS16 (11746705_a_at) / RFU VCAN (11755009_s_at) / Fold change /veh VCAN (11755009_s_at) / RFU RHOB (11743442_s_at) / Fold change /veh RHOB (11743442_s_at) / RFU RGS16 (11720943_a_at) / Fold change /veh RGS16 (11720943_a_at) / RFU RGS16 (11720944_at) / Fold change /veh RGS16 (11720944_at) / RFU, VPS4B / Fold change vs veh, VPS4B / RFU, CREB1 / Fold change vs veh, CREB1 / RFU, DNAJC13 / Fold change vs veh, DNAJC13 / RFU, GNAQ / Fold change vs veh, GNAQ / RFU, CDK5R1 / Fold change vs veh, CDK5R1 / RFU, ZRANB3 / Fold change vs veh, ZRANB3 / RFU, CUL4A / Fold change vs veh, CUL4A / RFU, CCNY / Fold change vs veh, CCNY / RFU, UFL1 / Fold change vs veh, UFL1 / RFU, COG3 / Fold change vs veh, COG3 / RFU, DIAPH2 / Fold change vs veh, DIAPH2 / RFU, SKA2 / Fold change vs veh, SKA2 / RFU, AFF3 / Fold change vs veh, AFF3 / RFU, LMF1 / Fold change vs veh, LMF1 / RFU, IPO11 / Fold change vs veh, IPO11 / RFU, DFFB / Fold change vs veh, DFFB / RFU, FOXP1 / Fold change vs veh, FOXP1 / RFU, CARD8 / Fold change vs veh, CARD8 / RFU, STRN3 / Fold change vs veh, STRN3 / RFU, ADK / Fold change vs veh, ADK / RFU, RASSF2 / Fold change vs veh, RASSF2 / RFU, WIPF1 / Fold change vs veh, WIPF1 / RFU, LARP1B / Fold change vs veh, LARP1B / RFU, RASA1 / Fold change vs veh, RASA1 / RFU, RB1 / Fold change vs veh, RB1 / RFU, PPFIA1 / Fold change vs veh, PPFIA1 / RFU, MAT2A / Fold change vs veh, MAT2A / RFU, CCT5 / Fold change vs veh, CCT5 / RFU, WDR92 / Fold change vs veh, WDR92 / RFU, CUX1 / Fold change vs veh, CUX1 / RFU, TTC7A / Fold change vs veh, TTC7A / RFU, TMEM135 / Fold change vs veh, TMEM135 / RFU, DEPTOR / Fold change vs veh, DEPTOR / RFU, CPM / Fold change vs veh, CPM / RFU, DNAJB6 / Fold change vs veh, DNAJB6 / RFU, CACNA2D3 / Fold change vs veh, CACNA2D3 / RFU, DTX4 / Fold change vs veh, DTX4 / RFU, TFCP2 / Fold change vs veh, TFCP2 / RFU, GMCL1 /// GMCL1P1 / Fold change vs veh, GMCL1 /// GMCL1P1 / RFU, AEBP2 / Fold change vs veh, AEBP2 / RFU, SNHG1 /// SNORD22 /// SNORD25 /// SNORD26 /// SNORD27 /// SNORD28 /// SNORD29 /// SNORD31 / Fold change vs veh, SNHG1 /// SNORD22 /// SNORD25 /// SNORD26 /// SNORD27 /// SNORD28 /// SNORD29 /// SNORD31 / Fold change (Aza/veh), C12orf56 (ProbeSet 11735607_a_at) / Fold change (ACY-1035/veh), C12orf56 (ProbeSet 11735607_a_at) / Fold change (Aza/veh), FGFR1OP (ProbeSet 11751329_s_at) / Fold change (ACY-1035/veh), FGFR1OP (ProbeSet 11751329_s_at) / Fold change (Aza/veh), VPS36 (ProbeSet 11739960_a_at) / Fold change (ACY-1035/veh), VPS36 (ProbeSet 11739960_a_at) / RFU SYPL1 (11715823_x_at) / Fold change /veh SYPL1 (11715823_x_at) / RFU IGFBP7 (11715501_s_at) / Fold change /veh IGFBP7 (11715501_s_at) / RFU REEP3 (11722064_at) / Fold change /veh REEP3 (11722064_at) / RFU IGLL1 (11728026_x_at) / Fold change /veh IGLL1 (11728026_x_at): dose or concentration left out as unconfirmed
# Settings: MV-4-11 cells, 48 hours
structure (smiles),measurement,value
Nc1ccc(-c2cccs2)cc1NC(=O)c1ccc2c(c1)cc(C1CC1)n2CCN1CCOCC1 [ACY-1035],RFU MAGEB2 (11727129_at),5.89 RFU
